Test results as given in ChEMBL document CHEMBL1909514, “Imidazo[2,1-b]thiazole guanylhydrazones as RSK2 inhibitors” (Eur J Med Chem, 2011).
Activity calls are given as the source filed them. The rule behind the calls is not given here.

Experiments:
[1] = target: T1, Aurora kinase A (Homo sapiens) (UniProt O14965); assay: Inhibition of Aurora kinase A assessed as inhibition of substrate phosphorylation using fluorescent peptide substrate up to 100 uM by microplate reader assay
T1 sequence (whole entry): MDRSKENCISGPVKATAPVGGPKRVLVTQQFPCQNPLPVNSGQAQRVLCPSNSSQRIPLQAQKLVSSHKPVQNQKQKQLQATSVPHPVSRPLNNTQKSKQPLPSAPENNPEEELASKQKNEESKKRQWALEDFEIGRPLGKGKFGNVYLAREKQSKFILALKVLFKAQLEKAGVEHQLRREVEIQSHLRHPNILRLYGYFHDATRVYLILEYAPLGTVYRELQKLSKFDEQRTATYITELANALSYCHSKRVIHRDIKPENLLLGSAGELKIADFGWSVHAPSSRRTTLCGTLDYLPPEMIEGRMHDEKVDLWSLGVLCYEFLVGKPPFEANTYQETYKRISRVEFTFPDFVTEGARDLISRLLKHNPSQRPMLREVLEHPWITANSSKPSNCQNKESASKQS

[2] = target: Ribosomal protein S6 kinase alpha-3 (Homo sapiens, UniProt P51812)
Chain of Ribosomal protein S6 kinase alpha-3 (P51812 whole entry): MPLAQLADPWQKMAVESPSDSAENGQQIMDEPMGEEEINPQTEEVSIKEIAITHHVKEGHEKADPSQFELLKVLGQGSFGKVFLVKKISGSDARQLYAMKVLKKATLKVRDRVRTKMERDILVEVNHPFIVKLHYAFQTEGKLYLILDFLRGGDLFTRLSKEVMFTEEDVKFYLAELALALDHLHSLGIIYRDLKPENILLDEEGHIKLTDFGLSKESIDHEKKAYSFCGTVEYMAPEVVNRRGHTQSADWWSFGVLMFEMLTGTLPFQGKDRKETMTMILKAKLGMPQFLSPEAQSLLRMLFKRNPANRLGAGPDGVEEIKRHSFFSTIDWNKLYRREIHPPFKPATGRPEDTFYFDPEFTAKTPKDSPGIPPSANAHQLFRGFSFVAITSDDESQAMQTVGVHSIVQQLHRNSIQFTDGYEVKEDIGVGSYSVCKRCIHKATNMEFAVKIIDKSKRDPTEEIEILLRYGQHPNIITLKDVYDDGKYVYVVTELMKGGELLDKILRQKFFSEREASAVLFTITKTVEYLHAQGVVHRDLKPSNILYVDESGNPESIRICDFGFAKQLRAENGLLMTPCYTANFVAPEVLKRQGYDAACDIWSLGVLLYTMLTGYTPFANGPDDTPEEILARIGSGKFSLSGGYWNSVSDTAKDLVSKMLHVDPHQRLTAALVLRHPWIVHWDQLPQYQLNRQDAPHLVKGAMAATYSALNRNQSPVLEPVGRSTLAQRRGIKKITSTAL
Description: Inhibition of RSK2 assessed as inhibition of substrate phosphorylation using fluorescent peptide substrate by microplate reader assay

[3] = target: Serine/threonine-protein kinase Chk2 (Homo sapiens, UniProt O96017)
Chain of Serine/threonine-protein kinase Chk2 (O96017 whole entry): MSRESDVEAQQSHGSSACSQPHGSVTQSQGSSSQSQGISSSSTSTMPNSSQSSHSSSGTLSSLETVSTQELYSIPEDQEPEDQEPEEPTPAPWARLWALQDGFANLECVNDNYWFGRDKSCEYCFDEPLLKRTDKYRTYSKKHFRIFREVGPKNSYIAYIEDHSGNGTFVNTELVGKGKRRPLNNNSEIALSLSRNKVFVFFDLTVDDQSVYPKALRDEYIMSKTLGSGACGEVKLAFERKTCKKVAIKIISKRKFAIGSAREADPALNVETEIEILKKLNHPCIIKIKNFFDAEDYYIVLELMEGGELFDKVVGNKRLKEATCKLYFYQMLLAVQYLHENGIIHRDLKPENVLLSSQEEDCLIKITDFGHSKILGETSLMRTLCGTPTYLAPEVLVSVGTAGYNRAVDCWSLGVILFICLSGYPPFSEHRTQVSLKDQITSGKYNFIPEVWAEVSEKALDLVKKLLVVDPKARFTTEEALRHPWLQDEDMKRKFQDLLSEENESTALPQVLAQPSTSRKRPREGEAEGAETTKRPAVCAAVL
Description: Inhibition of CHK2 assessed as inhibition of substrate phosphorylation using fluorescent peptide substrate by microplate reader assay

[4] = target: T2, Serine/threonine-protein kinase Chk1 (Homo sapiens, UniProt O14757)
T2 sequence (O14757 whole entry): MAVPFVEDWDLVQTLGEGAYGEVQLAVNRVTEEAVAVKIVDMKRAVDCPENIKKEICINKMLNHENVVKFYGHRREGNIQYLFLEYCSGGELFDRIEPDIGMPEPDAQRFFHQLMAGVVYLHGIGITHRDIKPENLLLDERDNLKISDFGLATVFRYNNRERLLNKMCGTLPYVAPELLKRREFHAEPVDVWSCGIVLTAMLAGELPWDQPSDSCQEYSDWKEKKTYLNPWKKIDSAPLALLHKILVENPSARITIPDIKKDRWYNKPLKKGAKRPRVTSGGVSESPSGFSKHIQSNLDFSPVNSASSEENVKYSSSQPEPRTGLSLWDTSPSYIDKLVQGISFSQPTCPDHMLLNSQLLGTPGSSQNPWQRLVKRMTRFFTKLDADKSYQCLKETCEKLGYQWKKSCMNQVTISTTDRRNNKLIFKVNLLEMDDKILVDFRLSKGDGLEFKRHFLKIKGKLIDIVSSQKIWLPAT
Description: Inhibition of CHK1 assessed as inhibition of substrate phosphorylation using fluorescent peptide substrate by microplate reader assay

inhibition [1] | IC50 [2] | IC50 [3] | IC50 [4] | Compound
inactive | 86 µM | 90 µM | > 100 µM | N=C(N)N/N=C/c1c(-c2ccc(F)cc2)nc2sc(Cl)cn12
inactive | > 100 µM | > 100 µM | > 100 µM | N=C(N)N/N=C\c1c(-c2ccc(F)cc2)nc2sccn12
inactive | > 100 µM | > 50 µM | > 100 µM | Cc1cn2c(/C=N\NC(=N)N)c(-c3ccc(F)cc3)nc2s1
inactive | 12 µM | > 100 µM | > 100 µM | N=C(N)N/N=C/c1c(-c2cc(Cl)sc2Cl)nc2sc3ccccc3n12
inactive | 8.55 µM | 93.5 µM | > 100 µM | N#Cc1ccc(-c2nc3sc(Cl)cn3c2/C=N/NC(=N)N)cc1
inactive | 8.26 µM | > 100 µM | > 100 µM | N=C(N)N/N=C/c1c(-c2cc(Cl)sc2Cl)nc2sc(Cl)cn12
inactive | 30.7 µM | 18.8 µM | 78.5 µM | Cc1cn2c(/C=N\NC(=N)N)c(-c3ccc(F)c([N+](=O)[O-])c3)nc2s1
 | 17.5 µM | 59 µM | > 100 µM | Cc1cn2c(/C=N/NC(=N)N)c(-c3cccc([N+](=O)[O-])c3)nc2s1
inactive | 10.1 µM | > 100 µM | > 100 µM | COc1cc([N+](=O)[O-])c(OC)cc1-c1nc2sc3ccccc3n2c1/C=N/NC(=N)N
inactive | 53.8 µM | 77.5 µM | > 100 µM | N=C(N)N/N=C\c1c(-c2ccc(F)c([N+](=O)[O-])c2)nc2sccn12
inactive | 7.8 µM | > 100 µM | > 100 µM | COc1cc([N+](=O)[O-])c(OC)cc1-c1nc2ccccn2c1/C=N/NC(=N)N
 | 100 µM | 34.3 µM | > 100 µM | Cc1csc2nc(-c3cccnc3)c(/C=N/NC(=N)N)n12
 | 11.4 µM | > 100 µM | > 100 µM | COc1cc([N+](=O)[O-])c(OC)cc1-c1nc2sc(Cl)cn2c1/C=N/NC(=N)N/N=C/c1c(-c2cc(OC)c([N+](=O)[O-])cc2OC)nc2sc(Cl)cn12
 | 20.5 µM | > 100 µM | > 100 µM | Cc1cn2c(/C=N/NC3=NCCN3)c(-c3ccc(Cl)c([N+](=O)[O-])c3)nc2s1
 | 83 µM | 59 µM | > 20 µM | CCc1cn2c(/C=N/NC(=N)N)c(-c3cc([N+](=O)[O-])c(Cl)cc3Cl)nc2s1
 | 5.66 µM | > 100 µM | > 100 µM | N=C(N)N/N=C/c1c(-c2ccc([N+](=O)[O-])cc2)nc2sccn12
inactive | 3.93 µM | 41.3 µM | > 100 µM | N=C(N)N/N=C/c1c(-c2ccc(F)c([N+](=O)[O-])c2)nc2sc(Cl)cn12
 | 6.43 µM | 90.5 µM | > 100 µM | CCCc1cn2c(/C=N/NC(=N)N)c(-c3ccc(Cl)c([N+](=O)[O-])c3)nc2s1
 | 5.93 µM | > 100 µM | > 100 µM | N=C(N)N/N=C/c1c(-c2cc([N+](=O)[O-])c(Cl)cc2Cl)nc2sccn12
 | 18 µM | > 100 µM | > 100 µM | Cc1cn2c(/C=N/NC(=N)NN)c(-c3ccc(Cl)c([N+](=O)[O-])c3)nc2s1
 | 2.89 µM | 79 µM | > 100 µM | N=C(N)N/N=C/c1c(-c2ccc(Cl)c([N+](=O)[O-])c2)nc2ccccn12
 | 20.9 µM | > 100 µM | > 100 µM | CCCc1cn2c(/C=N/NC(=N)N)c(-c3ccc([N+](=O)[O-])cc3)nc2s1
inactive | 56.7 µM | > 100 µM | > 100 µM | N=C(N)N/N=C\c1c(-c2ccc(Br)c([N+](=O)[O-])c2)nc2sccn12
